Patent publication US8592600B2, “Solid state forms of racemic ilaprazole” (Il Yang Pharmaceutical Company, Ltd., priority 2006, dated 2013)
“Also recorded” adds a separate entry of the source.

Assays:
gastric acid = experiment: Phase 1 and Phase 2 clinical studies conducted with ilaprazole; format: in vivo, human
[1] = Dynamic Vapor Sorption/Desorption (DVS); format: physicochemical; settings: for weight loss at 5% RH / weight loss from 95 to 5% RH / weight gain from 5 to 95% RH: DVS isotherm; for weight loss from 95 to 5% RH: desorption; for weight gain from 5 to 95% RH: sorption
Protocol: Dynamic Vapor Sorption/Desorption (DVS): Data were collected on a VTI SGA-100 moisture balance system. For sorption isotherms, a sorption range of 5 to 95% relative humidity (RH) and a desorption range of 95 to 5% RH in 10% RH increments were used for analysis. The samples were not dried prior to analysis. Equilibrium criteria used for analysis were less than 0.0100% weight change in 5 minutes with a maximum equilibration time of 3 hours if the weight criterion was not met. Data were not corrected for the initial moisture content of the samples.

[2] = Bioavailability study of ilaprazole from 40-mg delayed-release tablets, plasma pharmacokinetics; format: in vivo, human; settings: for AUC lower than Form A, point estimate / Cmax lower than Form A, point estimate: ANOVA point estimate, relative to 40-mg tablet as Form A; for half-life, relative: humans, Forms A, B, F compared; for mean AUC∞ lower than value observed for Form A / mean Cmax lower than value observed for Form A: mean values; for mean AUC∞ lower than value observed for Form A / mean Cmax lower than value observed for Form A / mean AUC, rank among forms / mean Cmax, rank among forms / mean apparent oral clearance, rank among forms / mean apparent volume of distribution, rank among forms: single 40 mg oral dose; for t1/2z, harmonic mean / tlag, Mean / tmax, Mean: single 5 mg oral dose (table title; text: 40 mg delayed-release tablet); for lower bound of 90% confidence interval for ratio of central values, AUC / lower bound of 90% confidence interval for ratio of central values, AUC∞ / lower bound of 90% confidence interval for ratio of central values, Cmax: relative to Form A (Regimen A), bioequivalence limit 0.80; for AUCt, Point Estimate (ratio of central values) vs. Regimen A / AUC∞, Point Estimate (ratio of central values) vs. Regimen A / Cmax, Point Estimate (ratio of central values) vs. Regimen A: relative to Regimen A (Form A), Regimen B = Form B, Regimen C = Form F, single 40-mg delayed-release tablet
From the text: The bioavailability of ilaprazole from delayed-release tablets containing racemic ilaprazole, Form A, F, and B. This study were to assessed the bioavailability of ilaprazole from ilaprazole 40-mg delayed-release tablets manufactured as described in Example 8.
The subjects were randomly assigned in equal numbers to one of three sequence groups (Table 32).
Subjects received all regimens in a crossover fashion, according to the sequence group to which they were randomized. For each period, confinement began on Day 1 and ended on Day 2 after all procedures had been completed. There was a washout interval of at least 5 days between the doses of each period. Each subject received 3 doses of racemic ilaprazole 40 mg, each dose administered with 240 mL of water. On Day 1 of each period, subjects received the regimen to which they had been assigned at approximately 0800 hours. Subjects were fasted for 10 hours prior to dosing and remained fasted until 4 hours postdose when a standardized lunch was served.
Ilaprazole, ilaprazole sulfide and ilaprazole sulfone plasma concentrations were determined from 3 mL blood samples collected starting on Day 1 at 0 hour (predose), and 0.5, 1, 1.5, 2, 3, 4, 5, 6, 8, 10, 12, 14, 16, 20, 24, 28 and 32 hours postdose in each period. Plasma concentrations of ilaprazole were determined using a validated LC-MS/MS method at PPD (Middleton, Wis.). The lower limit of quantitation (LLOQ) for ilaprazole and its metabolites was 5.00 ng/mL with a 0.100 mL aliquot of plasma.
Pharmacokinetic parameters for ilaprazole were estimated using standard noncompartmental methods with WinNonlin Professional Version 4.1 (Pharsight Co., Mountain View, Calif.).
Pharmacokinetic endpoints included time to reach the first quantifiable concentration (tlag), time to reach the peak concentration (tmax), the peak plasma concentration (Cmax), area under the plasma concentration versus time curve (AUC) from time zero to the last quantifiable concentration (AUCt) and to infinity (AUC∞), terminal-phase elimination half-life (t1/2z), apparent oral clearance (CL/F) and apparent volume of distribution (Vz/F).
For ilaprazole tlag, tmax, and the natural logarithms of Cmax and AUCs, an analyses of variance (ANOVA) model was fitted that included fixed effects of sequence, period, and crystal form as well as a random effect of subject nested within sequence. Pairwise comparisons between racemic ilaprazole, Forms B or F and Form A, were conducted. Ninety percent confidence intervals for relative bioavailability between regimens were computed.

[3] = Solubility of racemic ilaprazole forms in various ethanol solutions (100-50% ethanol) with various apparent pHs, 1 hour; format: physicochemical; settings: comparison between Forms A, B, F
Protocol: The solubility of racemic ilaprazole, Forms A, B, and F, were analyzed by exposing them to various ethanol solutions having various pHs for 1 hour. Duplicate analysis was performed for each sample on a second day. The solubility in 100% ethanol (with no pH adjustment) is shown in the first column. Various other aqueous solutions (87.5%, 75%, 62.5%, and 50% ethanol) with varying apparent pHs (7, 8, 9, 10, and 11) were also evaluated. All of the values below are the average of two duplicate preparations analyzed on different days.

[4] = Solid state stability of the crystalline forms; format: physicochemical
[5] = Dissolution rate of delayed release tablets, 40 mg (USP <711>, Delayed Release Method A); format: physicochemical; settings: 40 mg tablet, dissolution buffer
Protocol: Delayed release tablets containing 40 mg racemic ilaprazole, Form A, B, or F, were prepared and the dissolution rates of the tablets studied. The tablets were identical, with the exception of the crystalline form of ilaprazole. The qualitative and quantitative compositions of racemic ilaprazole delayed release tablets, 40 mg (inclusive of the compositions made using Forms A, B, and F) are described in Table 30. The dissolution rate procedure was modified to be consistent with USP <711>, Delayed Release Method A and to change the UV detection wavelength in the acid stage of the test. For the acid stage, a wavelength of 340 nm was used, and for the buffer stage, a wavelength of 306 nm was used. The desired dissolution profile was Q=70% in 60 minutes.

[6] = plasma ilaprazole, healthy adult subjects, fasted
[7] = plasma ilaprazole, healthy adult subjects, single 40 mg oral dose (table title; text: 40 mg delayed-release tablet), fasted
[8] = human, plasma, po, 40 mg, plasma ilaprazole, healthy adult subjects, single 40 mg oral dose (table title; text: 40 mg delayed-release tablet), fasted

SMILES: COc1ccnc(C[S+]([O-])c2nc3cc(-n4cccc4)ccc3[nH]2)c1C (stereo not shown) [ilaprazole, 2[[(4-methoxy-3-methyl-2-pyridinyl)-methyl]sulfinyl]-5-(1H-pyrrol-1-yl) 1H-Benzimidazole]
- suppression of gastric acid (gastric acid; Phase 1 clinical studies, at the doses studied): suppression of gastric acid occurs over a 24-hour period
- healing of acid-related gastric and duodenal ulcers (gastric acid; Phase 2 clinical studies): promoted rapid healing
- symptomatic relief (gastric acid; Phase 2 clinical studies, patients with gastric-acid related disorders): provided symptomatic relief

SMILES: COc1ccnc(C[S+]([O-])c2nc3cc(-n4cccc4)ccc3[nH]2)c1C (racemic) [Form F, 2[[(4-methoxy-3-methyl-2-pyridinyl)-methyl]sulfinyl]-5-(1H-pyrrol-1-yl) 1H-Benzimidazole]
- hygroscopicity [1]: slightly hygroscopic
- weight loss at 5% RH [1]: 0.04%
- weight loss from 95 to 5% RH [1]: 1.33%
- weight gain from 5 to 95% RH [1]: 1.05%
- AUC lower than Form A, point estimate [2]: 15-17%
- Cmax lower than Form A, point estimate [2]: approximately 15%
- half-life, relative [2]: longest half-life
- mean AUC∞ lower than value observed for Form A [2]: ~14%
- mean Cmax lower than value observed for Form A [2]: approximately 15%
- t1/2z, harmonic mean [2, 6]: (7.29) h
- tlag, Mean [2, 6]: 1.18 h
- tmax, Mean [2, 6]: 4.01 h
- AUCt, Mean [2, 7]: 4.25666 µg·h/mL
- AUC∞, Mean [2, 7]: 4.67237 µg·h/mL
- CL/F, Mean [2, 7]: 11.29 L/h
- Cmax, Mean [2, 7]: 0.55418 µg/mL
- t1/2z, arithmetic mean [2, 7]: 9.66 h
- lower bound of 90% confidence interval for ratio of central values, AUC [2]: < 0.80
- lower bound of 90% confidence interval for ratio of central values, AUC∞ [2]: < 0.80
- lower bound of 90% confidence interval for ratio of central values, Cmax [2]: < 0.80
- AUCt, Point Estimate (ratio of central values) vs. Regimen A [2]: 0.8288
- AUC∞, Point Estimate (ratio of central values) vs. Regimen A [2]: 0.8456
- Cmax, Point Estimate (ratio of central values) vs. Regimen A [2]: 0.8456
- relative solubility in aqueous solutions/solvents [3]: A<F<B; also recorded: more soluble in aqueous solvents than Form A

SMILES: COc1ccnc(C[S+]([O-])c2nc3cc(-n4cccc4)ccc3[nH]2)c1C (racemic) [Form B, 2[[(4-methoxy-3-methyl-2-pyridinyl)-methyl]sulfinyl]-5-(1H-pyrrol-1-yl) 1H-Benzimidazole]
- long term stability or shelf life [4]: good long term stability or shelf life
- hygroscopicity [1]: not hygroscopic
- weight loss at 5% RH [1]: 0.03%
- weight loss from 95 to 5% RH [1]: 0.00%
- weight gain from 5 to 95% RH [1]: 0.04%
- AUC lower than Form A, point estimate [2]: ~24%
- Cmax lower than Form A, point estimate [2]: approximately 17%
- half-life, relative [2]: greater half-life than Form A
- mean AUC∞ lower than value observed for Form A [2]: ~25%
- mean Cmax lower than value observed for Form A [2]: approximately 20%
- t1/2z, harmonic mean [2, 6]: (7.76) h
- tlag, Mean [2, 6]: 1.22 h
- tmax, Mean [2, 6]: 3.50 h
- AUCt, Mean [2, 7]: 3.8125 µg·h/mL
- AUC∞, Mean [2, 7]: 4.08799 µg·h/mL
- CL/F, Mean [2, 7]: 11.70 L/h
- Cmax, Mean [2, 7]: 0.52251 µg/mL
- t1/2z, arithmetic mean [2, 7]: 9.48 h
- lower bound of 90% confidence interval for ratio of central values, AUC [2]: < 0.80
- lower bound of 90% confidence interval for ratio of central values, AUC∞ [2]: < 0.80
- lower bound of 90% confidence interval for ratio of central values, Cmax [2]: < 0.80
- AUCt, Point Estimate (ratio of central values) vs. Regimen A [2]: 0.7630
- AUC∞, Point Estimate (ratio of central values) vs. Regimen A [2]: 0.7609
- Cmax, Point Estimate (ratio of central values) vs. Regimen A [2]: 0.8292
- mean AUC, rank among forms [2]: lowest
- mean Cmax, rank among forms [2]: lowest
- mean apparent oral clearance, rank among forms [2]: highest
- mean apparent volume of distribution, rank among forms [2]: highest
- dissolution of delayed release tablet, relative [5]: relatively slower dissolution profile; also recorded: slower to wet and dissolve in the dissolution buffer than Form A and Form F
- relative solubility in aqueous solutions/solvents [3]: A<F<B; also recorded: more soluble in aqueous solvents than Form A

SMILES: COc1ccnc(C[S+]([O-])c2nc3cc(-n4cccc4)ccc3[nH]2)c1C (racemic) [Form A, 2[[(4-methoxy-3-methyl-2-pyridinyl)-methyl]sulfinyl]-5-(1H-pyrrol-1-yl) 1H-Benzimidazole]
- thermodynamic stability among crystalline forms [4]: most thermodynamically stable
- hygroscopicity [1]: not hygroscopic
- weight loss at 5% RH [1]: 0.06%
- weight loss from 95 to 5% RH [1]: 0.13%
- weight gain from 5 to 95% RH [1]: 0.10%
- AUC(0-inf) [2, 8]: 5.45 µg·h/mL
- AUC(0-t) [2, 8]: 5.07 µg·h/mL
- Cmax [2, 8]: 0.652 µg/mL
- Tmax [2, 8]: 4.14 h
- Vd/F ([2]; human, plasma, po, 40 mg, plasma ilaprazole, healthy adult subjects, single 40 mg oral dose (table title; text: 40 mg delayed-release tablet), fasted, read-out: Vz/F, Mean): 112 L
- t1/2z, harmonic mean [2, 6]: (6.95) h
- tlag, Mean [2, 6]: 1.16 h
- CL/F, Mean [2, 7]: 9.34 L/h
- t1/2z, arithmetic mean [2, 7]: 8.89 h
- mean AUC, rank among forms [2]: highest
- mean Cmax, rank among forms [2]: highest
- mean apparent oral clearance, rank among forms [2]: lowest
- mean apparent volume of distribution, rank among forms [2]: lowest
- relative solubility in aqueous solutions/solvents [3]: A<F<B; also recorded: least soluble in aqueous solutions

SMILES: COc1ccnc(C[S+]([O-])c2nc3cc(-n4cccc4)ccc3[nH]2)c1C (racemic) [Form I, 2[[(4-methoxy-3-methyl-2-pyridinyl)-methyl]sulfinyl]-5-(1H-pyrrol-1-yl) 1H-Benzimidazole]
- weight loss at 5% RH [1]: 0.1%
- weight loss from 95 to 5% RH [1]: 4.2%
- weight gain from 5 to 95% RH [1]: 4.2%
